# Molecular target: T1, Neprilysin (Rattus norvegicus, UniProt P07861)
# T1 sequence (P07861 whole entry): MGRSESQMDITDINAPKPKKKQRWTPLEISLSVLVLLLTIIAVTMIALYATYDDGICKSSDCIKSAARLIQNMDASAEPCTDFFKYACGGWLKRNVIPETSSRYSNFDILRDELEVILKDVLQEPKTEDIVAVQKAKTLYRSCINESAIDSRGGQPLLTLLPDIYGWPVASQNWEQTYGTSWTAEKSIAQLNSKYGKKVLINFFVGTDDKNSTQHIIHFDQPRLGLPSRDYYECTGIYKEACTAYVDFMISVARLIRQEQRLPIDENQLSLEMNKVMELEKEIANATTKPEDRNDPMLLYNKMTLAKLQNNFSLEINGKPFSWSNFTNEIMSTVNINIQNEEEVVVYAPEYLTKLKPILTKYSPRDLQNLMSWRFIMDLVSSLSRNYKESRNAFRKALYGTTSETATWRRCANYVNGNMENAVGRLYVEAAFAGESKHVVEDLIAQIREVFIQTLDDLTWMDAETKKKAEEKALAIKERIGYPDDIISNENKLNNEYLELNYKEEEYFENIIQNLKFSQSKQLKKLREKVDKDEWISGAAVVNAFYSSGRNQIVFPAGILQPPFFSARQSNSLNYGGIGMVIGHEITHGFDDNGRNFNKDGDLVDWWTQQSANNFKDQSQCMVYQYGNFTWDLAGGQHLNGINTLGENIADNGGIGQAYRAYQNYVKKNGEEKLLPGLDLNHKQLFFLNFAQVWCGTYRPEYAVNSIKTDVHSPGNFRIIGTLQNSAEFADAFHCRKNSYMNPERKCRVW
# Assay: Inhibition of NEP 24.11 from rat kidney
# Format: tissue-based
row,Structure (SMILES),IC50 [nM]
1,CS(=O)(=O)CCCNC(=O)C1CCCCCCC(CS)C(=O)N1 (configuration not stated),63
2,O=C1NC(C(=O)Nc2ccccc2)CCCCCCC1CS (configuration not stated),551
3,O=C1NC(C(=O)NCCOCCO)CCCCCCC1CS (configuration not stated),84
4,O=C1NC(C(=O)Nc2cccnc2)CCCCCCC1CS (configuration not stated),59
5,"O=C1NC(C(=O)O)CCCCCCC1CS (single isomer, unassigned; (-))",> 1000
6,O=C1NC(C(=O)NCCCO)CCCCCCC1CS (configuration not stated),209

# These reach a lower IC50. Values come first.
row,IC50 [nM],Structure (SMILES)
1,4,O=C1NC(C(=O)O)CCCCCCC1CS (racemic)
2,0.8,"O=C1NC(C(=O)N2C[C@H](O)C[C@H]2C(=O)O)CCCCCCC1CS (single isomer, unassigned; (-))"
3,2,O=C1NC(C(=O)N2CCC[C@H]2C(=O)O)CCCCCCC1CS (some centres not stated)
4,14,NCCCC[C@@H](NC(=O)C1CCCCCCC(CS)C(=O)N1)C(=O)O (some centres not stated)
5,3,"O=C1NC(C(=O)O)CCCCCCC1CS (single isomer, unassigned; (+))"
6,11,O=C1NC(C(=O)N[C@H](CO)C(=O)O)CCCCCCC1CS (some centres not stated)

# Reference: ChEMBL document CHEMBL1126920, “Design and synthesis of an orally active macrocyclic neutral endopeptidase 24.11 inhibitor” (J Med Chem, 1993)
